# From paper PMC9811652 (RSC Advances, 2023)
# Key:
# [1] = test system: AChE; conditions: at 200 μM; cited from earlier work
# [2] = test system: BChE; conditions: at 200 μM; cited from earlier work
# [3] = target: human serum acetylcholinesterase (Homo sapiens, UniProt P22303); assay: biochemical
# Chain of human serum acetylcholinesterase (P22303 32-574 limits assumed): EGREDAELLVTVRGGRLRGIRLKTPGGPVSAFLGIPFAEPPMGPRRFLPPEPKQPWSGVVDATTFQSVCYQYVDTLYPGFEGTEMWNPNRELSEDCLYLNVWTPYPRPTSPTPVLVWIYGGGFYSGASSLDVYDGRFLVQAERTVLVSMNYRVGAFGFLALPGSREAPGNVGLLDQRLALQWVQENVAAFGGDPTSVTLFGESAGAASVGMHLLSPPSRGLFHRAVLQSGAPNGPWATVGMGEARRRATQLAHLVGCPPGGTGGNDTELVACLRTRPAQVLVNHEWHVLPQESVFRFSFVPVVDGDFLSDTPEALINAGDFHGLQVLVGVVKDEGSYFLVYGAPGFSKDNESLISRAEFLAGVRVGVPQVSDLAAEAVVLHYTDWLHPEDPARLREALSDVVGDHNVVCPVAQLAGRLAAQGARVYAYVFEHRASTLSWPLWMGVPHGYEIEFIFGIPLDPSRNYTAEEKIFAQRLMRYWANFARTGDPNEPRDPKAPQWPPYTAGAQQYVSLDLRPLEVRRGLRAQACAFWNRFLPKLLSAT
SMILES,"percentage inhibition, AChE [1] [%]","percentage inhibition, BChE [2] [%]",IC50 [3] [µM]
COc1ccc2c3c1O[C@H]1C[C@@H](O)C=C[C@@]31CCN(C)C2 [Galantamine],78.76 ± 0.94,79.72 ± 0.33,–
"COc1c(OC)c(OC)c2c(-c3ccccc3)c(-c3ccccc3)[nH]c2c1CNc1ccccc1 [indole amine 23, 4,5,6-Trimethoxy-2,3-diphenyl-7-phenylaminomethyl-(1H)-indole]",–,–,12.1
"COc1c(OC)c(OC)c2c(-c3ccccc3)c(-c3ccccc3)[nH]c2c1CNc1cccc([N+](=O)[O-])c1 [indole amine 24, 4,5,6-Trimethoxy-7-(3′-nitrophenylaminomethyl)-2,3-diphenyl-(1H)-indole]",–,–,4.66
"COc1c(OC)c(OC)c2c(-c3ccccc3)c(-c3ccccc3)[nH]c2c1CNc1ccc([N+](=O)[O-])cc1 [indole amine 25, 4,5,6-Trimethoxy-7-(4′-nitrophenylaminomethyl)-2,3-diphenyl-(1H)-indole]",–,–,4.28
